Patent publication US4897506A, “Isolation of alpha-l-aspartyl-l-phenylalanine methyl ester from aqueous medium” (Mitsui Toatsu Chemicals, Incorporated, priority 1987, dated 1990)
Residues, ends and D or L forms follow the SMILES beside them.

How the values were obtained:
[1] = Method for Testing Solubilization: time required for completely dissolving crushed α-APM sample in water; assay type: physicochemical; details: 26±2° C.; for time required for completely dissolving the sample (solubilization test): 250 mg crushed sample in 250 ml purified water, magnetic stirrer 350-360 rpm, stirring and standing alternated every 30 seconds; for Solubilization (min), Table 2 / Solubilization (minutes), Table 1: 250 mg in 250 ml purified water, stirring/standing every 30 seconds
Procedure: Crushed α-APM sample (250 mg) is poured into 250 ml of purified water at 26±2° C. with stirring by a magnetic stirrer at 350- 360 rpm. Stirring and standing are alternately repeated for every 30 seconds and the time required for completely dissolving the sample is measured.

[2] = Solubilization of conventionally recrystallized α-APM (background); assay type: physicochemical; details: 250 mg in 250 ml water, room temperature
Description: α-APM purified by conventional recrystallization methods has the disadvantage of poor solubilization (rate of solution) in water.

[3] = Thermal stability in solution (diketopiperazine formation); assay type: physicochemical; details: aqueous medium, temperatures higher than 70° C.
[4] = Hard block formation on drying; assay type: physicochemical; details: dry crystalline α-APM
[5] = pH; cited from earlier work
[6] = crystallized by cooling without forced flow, Japanese Laid-Open Patent No. 177952/1983; cited from earlier work

time required for completely dissolving the sample (solubilization test) [1] [min]	SMILES	other results
5.5	COC(=O)[C@H](Cc1ccccc1)NC(=O)[C@@H](N)CC(=O)O [Example 12, α-L-aspartyl-L-phenylalanine methyl ester] (H-Asp-Phe-OMe)	–
–	COC(=O)[C@H](Cc1ccccc1)NC(=O)[C@@H](N)CC(=O)O [Example 22, α-L-aspartyl-L-phenylalanine methyl ester] (H-Asp-Phe-OMe)	Solubilization (min), Table 2 [1]: 5.0 min
12.5	COC(=O)[C@H](Cc1ccccc1)NC(=O)[C@@H](N)CC(=O)O [compound 8, α-L-aspartyl-L-phenylalanine methyl ester, reference compound] (H-Asp-Phe-OMe)	–
13.5	COC(=O)[C@H](Cc1ccccc1)NC(=O)[C@@H](N)CC(=O)O [compound 7, α-L-aspartyl-L-phenylalanine methyl ester, reference compound] (H-Asp-Phe-OMe)	–
≤ 5	COC(=O)[C@H](Cc1ccccc1)NC(=O)[C@@H](N)CC(=O)O [Example 2, α-L-aspartyl-L-phenylalanine methyl ester] (H-Asp-Phe-OMe)	–
–	COC(=O)[C@H](Cc1ccccc1)NC(=O)[C@@H](N)CC(=O)O [compound 5, α-L-aspartyl-L-phenylalanine methyl ester, reference compound] (H-Asp-Phe-OMe)	Solubilization (minutes), Table 1 ([1]; listed as Comp. Ex. 5): 12.5 min
≤ 5	COC(=O)[C@H](Cc1ccccc1)NC(=O)[C@@H](N)CC(=O)O [Example 3, α-L-aspartyl-L-phenylalanine methyl ester] (H-Asp-Phe-OMe)	–
–	COC(=O)[C@H](Cc1ccccc1)NC(=O)[C@@H](N)CC(=O)O [α-APM, α-L-aspartyl-L-phenylalanine methyl ester] (H-Asp-Phe-OMe)	time required to dissolve completely ([2]; crushed powder recrystallized from 50 vol. % aqueous methanol, stirring and standing every 30 seconds): more than 15 minutes; undissolved α-APM after 5 minutes ([2]; recrystallized from 50 vol. % aqueous methanol): a significant amount of undissolved α-APM remains even after 5 minutes; thermal stability in solution [3]: diketopiperazine compound is undesirably formed as by-product; hard block formation in the dry state [4]: forms a hard block in the dry state; isoelectric point [5]: 5.6; solubilization compared to conventionally crystallized product [6]: excellent solubilization as compared to conventionally crystallized product
12.5	COC(=O)[C@H](Cc1ccccc1)NC(=O)[C@@H](N)CC(=O)O [compound 3, α-L-aspartyl-L-phenylalanine methyl ester, reference compound] (H-Asp-Phe-OMe)	–
–	COC(=O)[C@H](Cc1ccccc1)NC(=O)[C@@H](N)CC(=O)O [Example 9, α-L-aspartyl-L-phenylalanine methyl ester] (H-Asp-Phe-OMe)	Solubilization (minutes), Table 1 ([1]; listed as Ex. 9): 7.5 min
≤ 5	COC(=O)[C@H](Cc1ccccc1)NC(=O)[C@@H](N)CC(=O)O [Example 1, α-L-aspartyl-L-phenylalanine methyl ester] (H-Asp-Phe-OMe)	–
6.5	COC(=O)[C@H](Cc1ccccc1)NC(=O)[C@@H](N)CC(=O)O [Example 11, α-L-aspartyl-L-phenylalanine methyl ester] (H-Asp-Phe-OMe)	–
–	COC(=O)[C@H](Cc1ccccc1)NC(=O)[C@@H](N)CC(=O)O [Example 8, α-L-aspartyl-L-phenylalanine methyl ester] (H-Asp-Phe-OMe)	Solubilization (minutes), Table 1 ([1]; listed as Ex. 8): 5.5 min
5.5	COC(=O)[C@H](Cc1ccccc1)NC(=O)[C@@H](N)CC(=O)O [Example 13, α-L-aspartyl-L-phenylalanine methyl ester] (H-Asp-Phe-OMe)	–
–	COC(=O)[C@H](Cc1ccccc1)NC(=O)[C@@H](N)CC(=O)O [Example 19, α-L-aspartyl-L-phenylalanine methyl ester] (H-Asp-Phe-OMe)	Solubilization (min), Table 2 [1]: 5.5 min
13.5	COC(=O)[C@H](Cc1ccccc1)NC(=O)[C@@H](N)CC(=O)O [compound 4, α-L-aspartyl-L-phenylalanine methyl ester, reference compound] (H-Asp-Phe-OMe)	–
≤ 5	COC(=O)[C@H](Cc1ccccc1)NC(=O)[C@@H](N)CC(=O)O [Example 18, α-L-aspartyl-L-phenylalanine methyl ester] (H-Asp-Phe-OMe)	–

time required for completely dissolving the sample (solubilization test) [1] [min]	SMILES	other results
–	COC(=O)[C@H](Cc1ccccc1)NC(=O)[C@@H](N)CC(=O)O [Example 10, α-L-aspartyl-L-phenylalanine methyl ester] (H-Asp-Phe-OMe)	Solubilization (minutes), Table 1 ([1]; listed as Ex. 10): 5.5 min
≤ 5	COC(=O)[C@H](Cc1ccccc1)NC(=O)[C@@H](N)CC(=O)O [Example 23, α-L-aspartyl-L-phenylalanine methyl ester] (H-Asp-Phe-OMe)	–
≤ 5	COC(=O)[C@H](Cc1ccccc1)NC(=O)[C@@H](N)CC(=O)O [Example 16, α-L-aspartyl-L-phenylalanine methyl ester] (H-Asp-Phe-OMe)	–
≤ 5	COC(=O)[C@H](Cc1ccccc1)NC(=O)[C@@H](N)CC(=O)O [Example 4, α-L-aspartyl-L-phenylalanine methyl ester] (H-Asp-Phe-OMe)	–
–	COC(=O)[C@H](Cc1ccccc1)NC(=O)[C@@H](N)CC(=O)O [Example 21, α-L-aspartyl-L-phenylalanine methyl ester] (H-Asp-Phe-OMe)	Solubilization (min), Table 2 [1]: 5.5 min
–	COC(=O)[C@H](Cc1ccccc1)NC(=O)[C@@H](N)CC(=O)O [Example 6, α-L-aspartyl-L-phenylalanine methyl ester] (H-Asp-Phe-OMe)	Solubilization (minutes), Table 1 ([1]; listed as Ex. 6): 6.5 min
12.5	COC(=O)[C@H](Cc1ccccc1)NC(=O)[C@@H](N)CC(=O)O [compound 1, α-L-aspartyl-L-phenylalanine methyl ester, reference compound] (H-Asp-Phe-OMe)	–
11.5	COC(=O)[C@H](Cc1ccccc1)NC(=O)[C@@H](N)CC(=O)O [compound 2, α-L-aspartyl-L-phenylalanine methyl ester, reference compound] (H-Asp-Phe-OMe)	–
≤ 5	COC(=O)[C@H](Cc1ccccc1)NC(=O)[C@@H](N)CC(=O)O [Example 17, α-L-aspartyl-L-phenylalanine methyl ester] (H-Asp-Phe-OMe)	–
12	COC(=O)[C@H](Cc1ccccc1)NC(=O)[C@@H](N)CC(=O)O [compound 9, α-L-aspartyl-L-phenylalanine methyl ester, reference compound] (H-Asp-Phe-OMe)	–
–	COC(=O)[C@H](Cc1ccccc1)NC(=O)[C@@H](N)CC(=O)O [compound 6, α-L-aspartyl-L-phenylalanine methyl ester, reference compound] (H-Asp-Phe-OMe)	Solubilization (minutes), Table 1 ([1]; listed as Comp. Ex. 6): 13.5 min
–	COC(=O)[C@H](Cc1ccccc1)NC(=O)[C@@H](N)CC(=O)O [Example 7, α-L-aspartyl-L-phenylalanine methyl ester] (H-Asp-Phe-OMe)	Solubilization (minutes), Table 1 ([1]; listed as Ex. 7): 4.5 min
–	COC(=O)[C@H](Cc1ccccc1)NC(=O)[C@@H](N)CC(=O)O [Example 20, α-L-aspartyl-L-phenylalanine methyl ester] (H-Asp-Phe-OMe)	Solubilization (min), Table 2 [1]: 5.5 min
5.5	COC(=O)[C@H](Cc1ccccc1)NC(=O)[C@@H](N)CC(=O)O [Example 15, α-L-aspartyl-L-phenylalanine methyl ester] (H-Asp-Phe-OMe)	–
–	COC(=O)[C@H](Cc1ccccc1)NC(=O)[C@@H](N)CC(=O)O [Example 5, α-L-aspartyl-L-phenylalanine methyl ester] (H-Asp-Phe-OMe)	Solubilization (minutes), Table 1 ([1]; listed as Ex. 5): 6.5 min
6.5	COC(=O)[C@H](Cc1ccccc1)NC(=O)[C@@H](N)CC(=O)O [Example 14, α-L-aspartyl-L-phenylalanine methyl ester] (H-Asp-Phe-OMe)	–
